Results taken from PubChem BioAssay AID328 (DTP/NCI, 2004).
Several values for one entry are separate records, joined by “and”; a condition that tells them apart may be missing. Equal entries are not always repeated. Toxic doses and inconclusive results are not listed.

Tested on: BDF1 mice, P388 leukemia ip, median survival T/C
Test: NCI In Vivo Anticancer Drug Screen. Data for tumor model P388 Leukemia (intraperitoneal) in B6D2F1 (BDF1) mice
Conditions: endpoint: median survival time, higher = longer survival
Outline: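 Read-out is survival of treated animals expressed relative to the vehicle group, as a T/C ratio.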

[1] = dose: 100.0 mg/kg/injection, schedule: Q01DX009 (ip), vehicle: saline with Tween-80
[2] = dose: 200.0 mg/kg/injection, schedule: Q01DX009 (ip), vehicle: saline with Tween-80
[3] = dose: 50.0 mg/kg/injection, schedule: Q01DX009 (ip), vehicle: Klucel (hydroxypropylcellulose) (HPC)
[4] = dose: 100.0 mg/kg/injection, schedule: Q01DX009 (ip), vehicle: Klucel (hydroxypropylcellulose) (HPC)
[5] = dose: 200.0 mg/kg/injection, schedule: Q01DX009 (ip), vehicle: Klucel (hydroxypropylcellulose) (HPC)
[6] = dose: 100.0 mg/kg/injection, schedule: Q01DX001 (ip), vehicle: saline sonified
[7] = dose: 200.0 mg/kg/injection, schedule: Q01DX001 (ip), vehicle: saline sonified
[8] = dose: 100.0 mg/kg/injection, schedule: Q04DX003 (ip), vehicle: saline
[9] = dose: 200.0 mg/kg/injection, schedule: Q04DX003 (ip), vehicle: saline
[10] = dose: 100.0 mg/kg/injection, schedule: Q04DX003 (ip), vehicle: saline with Tween-80
[11] = dose: 200.0 mg/kg/injection, schedule: Q04DX003 (ip), vehicle: saline with Tween-80
[12] = dose: 400.0 mg/kg/injection, schedule: Q04DX003 (ip), vehicle: saline with Tween-80
[13] = dose: 100.0 mg/kg/injection, schedule: Q01DX001 (ip), vehicle: saline with Tween-80
[14] = dose: 200.0 mg/kg/injection, schedule: Q01DX001 (ip), vehicle: saline with Tween-80
[15] = dose: 100.0 mg/kg/injection, schedule: Q04DX003 (ip), vehicle: Klucel (hydroxypropylcellulose) (HPC)
[16] = dose: 200.0 mg/kg/injection, schedule: Q04DX003 (ip), vehicle: Klucel (hydroxypropylcellulose) (HPC)
[17] = dose: 12.5 mg/kg/injection, schedule: Q01DX009 (ip), vehicle: saline with Tween-80
[18] = dose: 25.0 mg/kg/injection, schedule: Q01DX009 (ip), vehicle: saline with Tween-80
[19] = dose: 50.0 mg/kg/injection, schedule: Q01DX009 (ip), vehicle: saline with Tween-80

Compound: CC12CCC3C(CCC4=CC(=O)C(C(O)(C(F)(F)F)C(F)(F)F)CC43C)C1CC(C(O)(C(F)(F)F)C(F)(F)F)C2=O (stereo not given)
- T/C (dose: 100.0 mg/kg/injection, schedule: Q01DX001 (sc), vehicle: steriod suspending solution): 100 % of control
- T/C (dose: 200.0 mg/kg/injection, schedule: Q01DX001 (sc), vehicle: steriod suspending solution): 100 % of control
- T/C (dose: 400.0 mg/kg/injection, schedule: Q01DX001 (sc), vehicle: steriod suspending solution): 95 % of control

Compound: NC1(C(=O)O)CCCC1
- T/C (dose: 20.0 mg/kg/injection, schedule: Q01DX010 (ip), vehicle: water): 100 % of control
- T/C (dose: 22.5 mg/kg/injection, schedule: Q01DX010 (ip), vehicle: saline): 100 % of control and 120 % of control
- T/C (dose: 25.0 mg/kg/injection, schedule: Q01DX009 (ip), vehicle: carboxymethylcellulose (CMC)): 93 % of control
- T/C (dose: 45.0 mg/kg/injection, schedule: Q01DX010 (ip), vehicle: saline): 110 % of control
- T/C (dose: 50.0 mg/kg/injection, schedule: Q01DX009 (ip), vehicle: carboxymethylcellulose (CMC)): 92 % of control
- T/C (dose: 80.0 mg/kg/injection, schedule: Q01DX010 (ip), vehicle: water): 110 % of control
- T/C (dose: 90.0 mg/kg/injection, schedule: Q01DX010 (ip), vehicle: saline): 185 % of control
- T/C [1]: 100 % of control
- T/C (dose: 200.0 mg/kg/injection, schedule: Q01DX009 (ip), vehicle: carboxymethylcellulose (CMC)): 87 % of control
- T/C [2]: 90 % of control

Compound: CC(C)NC1(C(N)=O)CCN(Cc2ccccc2)CC1
- T/C [3]: 95 % of control
- T/C [4]: 91 % of control
- T/C [5]: 95 % of control

Compound: O=C(CC(c1ccccc1)C(C(=O)O)c1ccccc1)c1ccccc1 (stereo not given)
- T/C [3]: 101 % of control
- T/C [4]: 92 % of control

Compound: Cc1ccc(NCc2nc(N)nc(Nc3ccc(C)cc3)n2)cc1
- T/C (dose: 50.0 mg/kg/injection, schedule: Q01DX001 (ip), vehicle: saline sonified): 100 % of control
- T/C [6]: 100 % of control
- T/C [7]: 90 % of control

Compound: O=c1ccc2nccc3c4ccccc4n1c23
- T/C [6]: 100 % of control
- T/C [7]: 100 % of control
- T/C (dose: 400.0 mg/kg/injection, schedule: Q01DX001 (ip), vehicle: saline sonified): 100 % of control

Compound: O=C(Nc1ccc(Cl)c(C(F)(F)F)c1)Nc1ccc(Oc2ccc(Cl)cc2)cc1S(=O)(=O)O
- T/C (dose: 50.0 mg/kg/injection, schedule: Q04DX003 (ip), vehicle: saline): 100 % of control
- T/C [8]: 95 % of control
- T/C [9]: 95 % of control

Compound: CCCOC(=O)C1(N)CCCC1
- T/C [1]: 100 % of control
- T/C [2]: 90 % of control

Compound: Nc1nc(SCc2ccccc2)c2ncn(C3CCCC3)c2n1
- T/C [10]: 100 % of control
- T/C [11]: 100 % of control
- T/C [12]: 100 % of control

Compound: Cc1ccc(NS(=O)(=O)c2ccccc2)cc1
- T/C [10]: 100 % of control
- T/C [11]: 100 % of control
- T/C [12]: 110 % of control

Compound: NC(CC[Se]CC(N)C(=O)O)C(=O)O (stereo not given)
- T/C (dose: 0.5 mg/kg/injection, schedule: Q01DX010 (ip), vehicle: saline): 90 % of control
- T/C (dose: 1.0 mg/kg/injection, schedule: Q01DX010 (ip), vehicle: saline): 104 % of control
- T/C (dose: 2.0 mg/kg/injection, schedule: Q01DX010 (ip), vehicle: saline): 100 % of control
- T/C (dose: 4.0 mg/kg/injection, schedule: Q01DX010 (ip), vehicle: saline): 104 % of control

Compound: CC(CCl)OC(C)CCl (stereo not given)
- T/C (dose: 100.0 mg/kg/injection, schedule: Q04DX002 (ip), vehicle: saline): 106 % of control
- T/C (dose: 200.0 mg/kg/injection, schedule: Q04DX002 (ip), vehicle: saline): 107 % of control
- T/C (dose: 400.0 mg/kg/injection, schedule: Q04DX002 (ip), vehicle: saline): 107 % of control

Compound: CC(/C=N/N=C(N)N)=N\N=C(N)N.O=C([O-])C(=O)[O-].O=C([O-])C(=O)[O-].[Nb+5].[O-][O-].[O-][O-]
- T/C (dose: 12.5 mg/kg/injection, schedule: Q01DX009 (ip), vehicle: saline): 97 % of control
- T/C (dose: 50.0 mg/kg/injection, schedule: Q01DX009 (ip), vehicle: saline): 90 % of control

Compound: O=S(=O)(Nc1cc(Cl)c(NS(=O)(=O)c2ccccc2)cc1Cl)c1ccccc1
- T/C [13]: 95 % of control
- T/C [14]: 90 % of control
- T/C (dose: 400.0 mg/kg/injection, schedule: Q01DX001 (ip), vehicle: saline with Tween-80): 86 % of control

Compound: Cc1cc(N(c2c(Cl)c(Cl)c(NS(=O)(=O)c3ccccc3)c(Cl)c2Cl)S(=O)(=O)c2ccccc2)cc(C)c1N
- T/C [15]: 96 % of control
- T/C [5]: 92 % of control
- T/C [16]: 96 % of control
- T/C (dose: 400.0 mg/kg/injection, schedule: Q01DX009 (ip), vehicle: Klucel (hydroxypropylcellulose) (HPC)): 96 % of control
- T/C (dose: 400.0 mg/kg/injection, schedule: Q04DX003 (ip), vehicle: Klucel (hydroxypropylcellulose) (HPC)): 88 % of control

Compound: O=c1[nH]cnc2[nH]ccc12
- T/C (dose: 6.25 mg/kg/injection, schedule: Q01DX009 (ip), vehicle: saline with Tween-80): 99 % of control
- T/C [17]: 103 % of control
- T/C [18]: 96 % of control
- T/C [19]: 99 % of control

Compound: O=C(NCc1ccco1)C(=O)NCc1ccco1
- T/C [19]: 87 % of control
- T/C [1]: 90 % of control
- T/C [2]: 98 % of control

Compound: O=C(Nc1ccccc1)Oc1cccc(/C=N/Sc2ccccc2)c1
- T/C [17]: 107 % of control
- T/C [18]: 100 % of control
- T/C [19]: 91 % of control

Compound: CSC(c1ccccc1)=[N+]1CCOCC1
- T/C (dose: 50.0 mg/kg/injection, schedule: Q01DX009 (ip), vehicle: other): 100 % of control
- T/C (dose: 50.0 mg/kg/injection, schedule: Q04DX003 (ip), vehicle: Klucel (hydroxypropylcellulose) (HPC)): 100 % of control
- T/C (dose: 100.0 mg/kg/injection, schedule: Q01DX009 (ip), vehicle: other): 118 % of control
- T/C [15]: 100 % of control
- T/C (dose: 200.0 mg/kg/injection, schedule: Q01DX009 (ip), vehicle: other): 113 % of control
- T/C [16]: 90 % of control

Compound: O=C(Oc1ccccc1[N+](=O)[O-])c1ccccc1
- T/C (dose: 25.0 mg/kg/injection, schedule: Q04DX003 (ip), vehicle: other): 100 % of control
- T/C (dose: 75.0 mg/kg/injection, schedule: Q04DX003 (ip), vehicle: other): 100 % of control
- T/C (dose: 150.0 mg/kg/injection, schedule: Q04DX003 (ip), vehicle: other): 95 % of control
- T/C (dose: 400.0 mg/kg/injection, schedule: Q04DX003 (ip), vehicle: other): 90 % of control

Compound: O=c1[nH]nc(CF)c(=O)[nH]1
- T/C (dose: 3.0 mg/kg/injection, schedule: Q01DX009 (ip), vehicle: saline): 100 % of control and 109 % of control
- T/C (dose: 6.0 mg/kg/injection, schedule: Q01DX009 (ip), vehicle: saline): 118 % of control
- T/C (dose: 12.0 mg/kg/injection, schedule: Q01DX009 (ip), vehicle: saline): 150 % of control
- T/C (dose: 24.0 mg/kg/injection, schedule: Q01DX009 (ip), vehicle: saline): 154 % of control and 172 % of control

Compound: CCNC(=O)N(CC(N)=O)c1ncc([N+](=O)[O-])s1
- T/C (dose: 12.5 mg/kg/injection, schedule: Q01DX001 (ip), vehicle: saline with Tween-80): 98 % of control
- T/C (dose: 25.0 mg/kg/injection, schedule: Q01DX001 (ip), vehicle: saline with Tween-80): 106 % of control
- T/C (dose: 50.0 mg/kg/injection, schedule: Q01DX001 (ip), vehicle: saline with Tween-80): 98 % of control
- T/C (dose: 50.0 mg/kg/injection, schedule: Q01DX005 (ip), vehicle: saline with Tween-80): 94 % of control
- T/C [13]: 93 % of control
- T/C (dose: 100.0 mg/kg/injection, schedule: Q01DX005 (ip), vehicle: saline with Tween-80): 86 % of control
- T/C [14]: 98 % of control
- T/C (dose: 200.0 mg/kg/injection, schedule: Q01DX005 (ip), vehicle: saline with Tween-80): 96 % of control

Compound: CCOC(=O)C(=CN1CCOCC1)C(=O)OCC
- T/C [10]: 100 % of control
- T/C [11]: 100 % of control
- T/C [12]: 109 % of control

Compound: CCOc1ccc(S(=O)(=O)O)c2cccnc12
- T/C [8]: 105 % of control
- T/C [9]: 105 % of control
- T/C (dose: 400.0 mg/kg/injection, schedule: Q04DX003 (ip), vehicle: saline): 105 % of control
